Laboratory results: patent US12570612B2, “Substituted nitrogen heterocyclic compound and anesthetic effect thereof” (priority 2019, dated 2026)
Values joined by “and” are separate entries in the source; they are usually repeats but may differ in a detail not shown here. Equal values may be shown once. “Also recorded” adds a separate entry of the source. Read-outs that look alike come from different tables or passages of the source.

Legend:
Sprague-Dawley rats [1] = assay: Pharmacological characteristics at equivalent doses (2ED50), Group A compounds; assay type: in vivo; set-up: Sedation duration: unit not given here; conditions: 2ED50, tail vein; for Types and incidence of adverse reactions: (animals affected/animals)
Sprague-Dawley rats [2] = conditions: for Recovery time after stopping infusion: LORR maintained for 1 hour; for Recovery time after stopping infusion / Onset time: 2 times the MIR; for Onset time / Types and incidence of adverse reactions: continuous infusion; for Types and incidence of adverse reactions: (animals affected/animals)
Method: Adult male Sprague-Dawley rats with body weight ranging from 250 to 300 gm were selected for continuous infusion test. […] Time to recovery of righting reflex from stopping infusion, and time to fully awake from stopping infusion were recorded.

H295R cell line [3] = assay: Adrenocortical function in vitro test: secretion of cortisol and corticosterone, Group A compounds; assay type: cell-based; conditions: H295 cells; for EC50: 0.1-10000 nM, HPLC-MS/MS
Sprague-Dawley rats [4] = assay: animal or person; conditions: for Approximate therapeutic index / Minimal lethal dose: rats
Method: (§1) Adult male Sprague-Dawley rats (250-300 g) were selected for the experiment. […] The anesthesia effects of the compounds were assessed in rats using a LORR assay and a period >30 s was considered as an indicator of general anesthesia.

Sprague-Dawley rats [5] = assay: Continuous infusion at 2 times the MIR for 1 hour, Group B compounds; assay type: in vivo; conditions: for Recovery time after stopping infusion: after 1 hour continuous infusion at 2 times the MIR; for Recovery time after stopping infusion / Onset time: rats; for Onset time: continuous tail vein infusion at 2 times the MIR, emulsion
Sprague-Dawley rats [6] = assay: animal or person; conditions: for ED50: LORR in rats, tail vein, brackets = 95% confidence limit; for Approximate therapeutic index / Minimal lethal dose: rats
Method: as §1

H295R cell line [7] = assay: Adrenocortical function in vitro test: secretion of cortisol and corticosterone, Group B compounds; assay type: cell-based; conditions: H295R cells; for EC50: 0.1-10000 nM, HPLC-MS/MS
[8] = Homo sapiens, read-out: EC50 (Corticosterone)
[9] = Homo sapiens, read-out: EC50 (Cortisol)
[10] = read-out: EC50 (Corticosterone)
[11] = LORR in rats, tail vein, brackets = 95% confidence limit
[12] = continuous infusion 2 x MIR 1 hour, rats affected/rats

Compound | Onset time (Sprague-Dawley rats [1]) [min] | Righting reflex duration (Sprague-Dawley rats [1]) [min] | Types and incidence of adverse reactions (Sprague-Dawley rats [1]) | Recovery time after stopping infusion (Sprague-Dawley rats [2]) [min] | Onset time (Sprague-Dawley rats [2]) [min] | Types and incidence of adverse reactions (Sprague-Dawley rats [2]) | Corticosterone as an indicator to determine the presence of inhibition (H295R cell line [3]) | Cortisol as an indicator to determine the presence of inhibition (H295R cell line [3]) | EC50 (H295R cell line [3]; [8]) [nM] | EC50 (H295R cell line [3]; [9]) [nM] | ED50 (Sprague-Dawley rats [4]; Rattus norvegicus) [mg/kg] | Approximate therapeutic index (Sprague-Dawley rats [4]) | Minimal lethal dose (Sprague-Dawley rats [4]) [mg/kg] | Recovery time after stopping infusion (Sprague-Dawley rats [5]) [min] | Types and incidence of adverse reactions: Tremor (Sprague-Dawley rats [5]; [12]) | Onset time (Sprague-Dawley rats [5]) [min] | ED50 (Sprague-Dawley rats [6]) | Approximate therapeutic index (Sprague-Dawley rats [6]) | Minimal lethal dose (Sprague-Dawley rats [6]) [mg/kg] | Corticosterone as an indicator to determine the presence of inhibition (H295R cell line [7]) | further results
C[C@H](c1ccccc1)n1nccc1C(=O)OC1CCC1 [Compound A4] | 0.52 ± 0.21 | 1.39 ± 0.66 | Red urine(6/6),; also recorded: Euphoria(5/6), Hindlimb; also recorded: rigidity(1/6) | 14 to 16 | 4 to 5 | Tremor(3/6), Tongue; also recorded: stretching(4/6) | 0 | 0 | > 1000 | > 1000 | 1 to 2 | >11 | >15 | – | – | – | – | – | – | – | –
C=C=CC(C)(C)OC(=O)c1ccnn1[C@H](C)c1ccccc1 [Compound A14] | 0.78 ± 0.22 | 1.20 ± 0.72 | Red urine(5/5), Four limbs; also recorded: Tremor(1/5) | 10 to 14 | 6 to 7 | Tremor(1/6), | 0 | 0 | > 1000 | > 1000 | 1 to 2 | >8 | >11 | – | – | – | – | – | – | – | –
COC(=O)C1=C(OC(=O)c2ccnn2[C@H](C)c2ccccc2)CCC1 [Compound A20] | 0.67 ± 0.14 | 1.15 ± 0.66 | Red urine(8/8), Hindlimb; also recorded: rigidity(3/8), General; also recorded: Tremor(1/8) | 12 to 15 | 5 to 6 | Tremor(5/6) | 0 | 0 | – | – | – | >10 | >12 | – | – | – | – | – | – | – | Sedation duration (Sprague-Dawley rats [1]): 7.05 ± 3.95; EC50 (H295R cell line [3]; [10]): > 100 nM; EC50 (H295R cell line [3]; read-out: EC50 (Cortisol)): > 100 nM; ED50 (Sprague-Dawley rats [4]; [11]): C (C indicates that the measured ED50 is in the range of 1.00-2.00 mg/kg (excluding 1.00 mg/kg, including 2.00 mg/kg))
C=C=CC1(OC(=O)c2ccnn2[C@H](C)c2ccccc2)COC1 [Compound A24] | 0.47 ± 0.09 | 1.47 ± 0.63 | Red and urine(8/8), Convulsions(5/ and 8), Hindlimb rigidity (2/8) | 8 to 12 | 4 to 5 | Tremor(2/6), Tongue; also recorded: stretching(4/6) | 0 | 0 | > 1000 | > 1000 | 0.04 to 0.5 | >31 | >6 | – | – | – | – | – | – | – | –
C[C@H](c1ccccc1)n1nccc1C(=O)OC1(C)COC1 [Compound A30] | 0.3 ± 0.22 | 2.6 ± 0.83 | Red and urine(8/8), Euphoria(3/8), and Tremor(1/8) | 8 to 14 | 3 to 4 | Tremor(2/6) | 0 | 0 | > 1000 | > 1000 | 1 to 2 | >6 | >7 | – | – | – | – | – | – | – | –
C=C=CC1(OC(=O)c2cc(F)nn2[C@H](C)c2ccccc2)COC1 [Compound A52] | 0.50 ± 0.08 | 2.01 ± 1.00 | Red and urine(8/8), Euphoria(3/8), and broken-winded(1/8) | 13 to 18 | 5 to 6 | Tongue stretching(4/6),; also recorded: Tremor(4/6) | 0 | 0 | > 1000 | > 1000 | 0.5 to 1 | >16 | >11 | – | – | – | – | – | – | – | –
COC1CC(OC(=O)c2c(F)cnn2C(C)c2ccccc2)C1 (centres unmarked) [Compound A76] | 0.36 ± 0.12 | 2.29 ± 0.56 | Red urine(8/8),; also recorded: Tremor(2/8),; also recorded: Euphoria(1/8) | 14 to 16 | 3 to 4 | Tremor(1/6), Tongue; also recorded: stretching(2/6) | 0 | 0 | – | – | – | >10 | >2 | – | – | – | – | – | – | – | Sedation duration (Sprague-Dawley rats [1]): 9.08 ± 2.16; EC50 (H295R cell line [3]; [10]): > 1000 nM; EC50 (H295R cell line [3]; read-out: EC50 (Cortisol)): > 1000 nM; ED50 (Sprague-Dawley rats [4]; [11]): A (A indicates that the measured ED50 is in the range of 0.04-0.50 mg/kg (including 0.04 and 0.50 mg/kg))
CC(=O)C1=C(OC(=O)c2c(F)cnn2[C@H](C)c2ccccc2)CCC1 [Compound A90] | 0.51 ± 0.07 | 5.21 ± 1.45 | Red and urine(8/8), Convulsions(2/ and 8), Nod(1/8) | 2 to 15 | 5 to 6 | Tremor(3/6) | 0 | 0 | > 1000 | > 1000 | 1 to 2 | >5 | >10 | – | – | – | – | – | – | – | –
CC(=O)C1=C(OC(=O)c2c(F)nnn2[C@H](C)c2ccccc2)CCCC1 [Compound B47] | – | – | – | – | – | – | – | – | – | – | – | – | – | 7 to 15 | Tremor(4/6), | 3 to 4 | C (C indicates that the measured ED50 is in the range of 1.00-2.00 mg/kg (excluding 1.00 mg/kg, including 2.00 mg/kg)) | >9 | >13 | 0 | Types and incidence of adverse reactions: Forelimbrigidity (Sprague-Dawley rats [5]; [12]): Forelimbrigidity(1/6); Cortisol as an indicator to determine the presence of inhibition (H295R cell line [7]): 0; EC50 (H295R cell line [7]; [10]): > 100 nM; EC50 (H295R cell line [7]; read-out: EC50 (Cortisol)): > 100 nM
C[C@H](c1ccccc1)n1nnc(Cl)c1C(=O)SC1CCC1 [Compound B80] | – | – | – | – | – | – | – | – | – | – | – | – | – | 12 to 16 | Tremor(5/6) | 3 to 5 | D (D indicates that the measured ED50 is in the range of 2.00-10.00 mg/kg (excluding 2.00 mg/kg, including 10.00 mg/kg)) | >3 | >16 | 0 | Cortisol as an indicator to determine the presence of inhibition (H295R cell line [7]): 0; EC50 (H295R cell line [7]; [10]): > 1000 nM; EC50 (H295R cell line [7]; read-out: EC50 (Cortisol)): > 1000 nM
CCOC(=O)c1nnn([C@H](C)c2ccccc2)c1Br [Compound B100] | – | – | – | – | – | – | – | – | – | – | – | – | – | 15 to 17 | Tremor(2/6), Tongue | 5 to 6 | D (D indicates that the measured ED50 is in the range of 2.00-10.00 mg/kg (excluding 2.00 mg/kg, including 10.00 mg/kg)) | >2 | >18 | 0 | Types and incidence of adverse reactions: Tongue stretching (Sprague-Dawley rats [5]; [12]): stretching(3/6); Cortisol as an indicator to determine the presence of inhibition (H295R cell line [7]): 0; EC50 (H295R cell line [7]; [10]): > 1000 nM; EC50 (H295R cell line [7]; read-out: EC50 (Cortisol)): > 1000 nM
CCOC(=O)c1c(Br)nnn1[C@H](C)c1ccccc1 [Compound B118] | – | – | – | – | – | – | – | – | – | – | – | – | – | 13 to 15 | Tremor(4/6), Tongue | 6 to 7 | C (C indicates that the measured ED50 is in the range of 1.00-2.00 mg/kg (excluding 1.00 mg/kg, including 2.00 mg/kg)) | >12 | >17 | 0 | Types and incidence of adverse reactions: Tongue stretching (Sprague-Dawley rats [5]; [12]): stretching(4/6); Cortisol as an indicator to determine the presence of inhibition (H295R cell line [7]): 0; EC50 (H295R cell line [7]; [10]): > 1000 nM; EC50 (H295R cell line [7]; read-out: EC50 (Cortisol)): > 1000 nM
